Measured values as given in patent publication US8785424B2, “ngCycloartanone derivatives with anticancer activity” (Pierre Fabre Medicament, priority 2009, dated 2014).
Structures can show the parent of a compound that is named as a salt.

Test system: proteasome
Assay: Cellular proteasome inhibition test: accumulation of 4Ub-Luc reporter (luciferase activity) in DLD-1 4Ub-Luc cell line
Type: cell-based, human
Conditions: DLD-1 4Ub-Luc cells, 8 hours, epoxomicin = 100%
Method: Biological tests were carried out according to protocols described in the following articles: Ausseil F. et al. J. Biomol Screen. 2007, 12, 106-116 and Vandenberghe I. et al. Biochemical Pharmacology 2008, 76, 453-462.
In order to select novel proteasome inhibitor compounds, it is necessary to indirectly measure the activity of this proteasome within cells. To this end, we constructed a stable cell line, DLD-1 4Ub-Luc, arising from a human colon cancer cell line, which produces a chimeric reporter protein called 4Ub-Luc. This protein is a fusion between a 4-ubiquitin (4Ub) label and luciferase (Luc). This label is capable to direct every proteins that carry it toward the proteasome. The 4Ub-Luc protein is thus efficiently degraded by the proteasome, in contrast to the “wild” non-fused Luc protein. When the DLD-1 4Ub-Luc cell line is treated with a proteasome inhibitor, the fusion protein is much less efficiently degraded and accumulates in the cell. This accumulation is detected by an increase in luciferase activity in the treated extract compared to the extract from untreated cells. The control consists of verifying that the inhibitor has no effect on accumulation of the wild Luc protein produced by the stable DLD-1 RF cell line. For both cell lines and for each product an induction factor is determined for the product tested (or the reference) corresponding to the ratio between the luciferase activities measured in cells treated with this product (or the reference) and cells treated with solvent alone.
The product's activity is then defined by its relative induction factor, i.e., the ratio of its induction factor (IF % luminescence) to that of the reference molecule epoxomicin (IF=100%; see data presented in the table below).
Thus, the test established by Pierre-Fabre is a cellular test that has the advantage, compared to a purely enzymatic test, of detecting only products capable of penetrating the cell.
Two cell lines are used for this test: DLD-1 RF and DLD-1 4Ub-Luc. The culture medium used is as follows: • MEM • 5% fetal calf serum • 5 ml of penicillin-streptomycin • 2.5 ml of FUNGIZONE® (Amphotericin B) • 10 ml of […]
Day 1: Inoculate white 96-well culture-treated plates (PerkinElmer White ViewPlate, product no. 6005181) with 100 μl of 1·10^5 c/ml cell suspension per well. Incubate for 24 hours so that the cells adhere. On each plate five columns will be inoculated with DLD-1 4Ub-Luc and five others with DLD-1 RF according to diagram 1 below.
Day 2: Remove the medium by turning the plates upside down on cotton, and then carry out the treatment with the compounds of the invention, with solvent alone or with a reference compound such as epoxomicin. […]
The columns are paired (examples 2 and 8, 3 and 9, 4 and 10 and 5 and 11) and treated with the same compound. Columns 6 and 7 receive the experimental control, namely 0.1% DMSO in culture medium for wells B, C, D, and E of columns 6 and 7, and the positive control (10^−7 M epoxomicin) in wells F and G.
After incubation, turn the plate upside down on cotton to empty the wells, rinse with 50 μl of PBS to remove any trace of the cytotoxin tested and then add 50 μl of 5× passive lysis buffer (Promega, product no. E1941) diluted to ⅕ in water. Shake energetically using a plate shaker for 5 to 10 minutes at room temperature before freezing at −20° C.
Luciferase activity is measured using a Luciferase Assay System 10-Pack kit (Promega, product no. E1501).
On the day luciferase activity is to be measured, defrost the plates and wait until they have returned to room temperature. The optimal temperature for luciferase activity is 20-25° C.
Reconstitute the firefly luciferase substrate by defrosting the buffer and then adding 10 ml of buffer to the bottle containing the freeze-dried substrate. Wait until the solution is at room temperature before beginning the assay. […]

[1] = concentration tested 5 · 10^−6 M
[2] = concentration tested 5 · 10^−7 M

Row | Compound | relative induction factor (IF % luminescence) versus epoxomicin [1] [%] | relative induction factor (IF % luminescence) versus epoxomicin [2] [%] | relative induction factor (IF % luminescence) versus epoxomicin (concentration tested 10^−6 M) [%] | relative induction factor (IF % luminescence) versus epoxomicin (concentration tested 10^−5 M) [%] | relative induction factor (IF % luminescence) versus epoxomicin (concentration tested 5 · 10^−6 M, hydrochloride) [%] | relative induction factor (IF % luminescence) versus epoxomicin (concentration tested 5 · 10^−7 M, hydrochloride) [%] | relative induction factor (IF % luminescence) versus epoxomicin (concentration tested 10^−5 M, hydrochloride) [%] | relative induction factor (IF % luminescence) versus epoxomicin (concentration tested 10^−6 M, hydrochloride) [%]
1 | C=C(C(=O)[C@H](OC(C)=O)[C@@H](C)[C@H]1[C@@H](OC(C)=O)C[C@@]2(C)[C@@H]3CC[C@H]4[C@H](C)C(=O)C=C[C@@]45C[C@@]35CC[C@]12C)[C@@H](C)COC(=O)Nc1ccccc1 [Compound 20, 26-N-phenylcarbamate-neoboutomellerone] | 60 | 6 | 42 | – | – | – | – | –
2 | C=C(C(=O)[C@H](OC(C)=O)[C@@H](C)[C@H]1[C@@H](OC(C)=O)C[C@@]2(C)[C@@H]3CC[C@H]4[C@H](C)C(=O)C=C[C@@]45C[C@@]35CC[C@]12C)[C@@H](C)COC(=O)N1CCN(C)CC1 [Compound 22, 26-N—(N-methylpiperazine)carbamate-neoboutomellerone hydrochloride] | 4 | 8 | 68 | 1 | – | – | – | –
3 | C=C(C(=O)[C@H](O)[C@@H](C)[C@H]1[C@@H](OC(C)=O)C[C@@]2(C)[C@@H]3CC[C@H]4[C@H](C)C(=O)C=C[C@@]45C[C@@]35CC[C@]12C)[C@@H](C)COC(=O)N1CCN(C)CC1 [Compound 23, 26-N—(N-methylpiperazine)carbamate-22-deacetyl-neoboutomellerone] | 7 | 15 | 69 | 2 | – | – | – | –
4 | C=C(C(=O)[C@H](O)[C@@H](C)[C@H]1[C@@H](OC(C)=O)C[C@@]2(C)[C@@H]3CC[C@H]4[C@H](C)C(=O)C=C[C@@]45C[C@@]35CC[C@]12C)[C@@H](C)COC(=O)N1CCN(C)CC1 [Compound 24, 26-N—(N-methylpiperazine)carbamate-22-deacetyl-neoboutomellerone hydrochloride] | – | – | – | – | 5 | 12 | 1 | 70
5 | C=C(C(=O)[C@H](OC(C)=O)[C@@H](C)[C@H]1[C@@H](OC(C)=O)C[C@@]2(C)[C@@H]3CC[C@H]4[C@H](C)C(=O)C=C[C@@]45C[C@@]35CC[C@]12C)[C@@H](C)COC(=O)Nc1ccc(N(C)C)cc1 [Compound 25, 26-N-(4-N,N-dimethylaniline)carbamate-neoboutomellerone] | 51 | 19 | 49 | 60 | – | – | – | –
6 | C=C(C(=O)[C@H](O)[C@@H](C)[C@H]1[C@@H](OC(C)=O)C[C@@]2(C)[C@@H]3CC[C@H]4[C@H](C)C(=O)C=C[C@@]45C[C@@]35CC[C@]12C)[C@@H](C)COC(=O)Nc1ccc(N(C)C)cc1 [Compound 26, 26-N-(4-N,N-dimethylaniline)carbamate-22-deacetyl-neoboutomellerone] | 54 | 11 | 53 | 37 | – | – | – | –
7 | C=C(C(=O)[C@H](OC(C)=O)[C@@H](C)[C@H]1[C@@H](OC(C)=O)C[C@@]2(C)[C@@H]3CC[C@H]4[C@H](C)/C(=N/O)C=C[C@@]45C[C@@]35CC[C@]12C)[C@@H](C)CO [Compound 27, 3-anti-oxime-neoboutomellerone] | 103 | 1 | 1 | – | – | – | – | –
8 | C=C(C(=O)[C@H](OC(C)=O)[C@@H](C)[C@H]1[C@@H](OC(C)=O)C[C@@]2(C)[C@@H]3CC[C@H]4[C@H](C)/C(=N/NC(N)=O)C=C[C@@]45C[C@@]35CC[C@]12C)[C@@H](C)CO [Compound 35, 3-semicarbazone-neoboutomellerone] | 99 | – | 1 | 30 | – | – | – | –
